pIC50: −log10 of the molar value.
Legend:
[1] = target: T1, catalytic domain (JH1, amino acids 826-1132) of human JAK2 (Homo sapiens, UniProt O60674); test: JAK2 LanthaScreen JH1 Binding Assay; settings: JAK2 JH1 (1.5 nM), 50 nM fluorescent JAK2-JH1 tracer, 2 hours at 25° C.; read-out: JH1 BIND
T1 construct: catalytic domain (JH1, amino acids 826-1132) of human JAK2; FLAG (N); purchased Carna Biosciences 08-445-20N; host or cells: baculovirus expression system
Protocol: Example A. JAK2 LanthaScreen JH1 Binding Assay
JAK2 JH1 binding assay utilizes catalytic domain (JH1, amino acids 826-1132) of human JAK2 expressed as N-terminal FLAG-tagged, biotinylated protein in a baculovirus expression system (Carna Biosciences, Product #08-445-20N). The assay was conducted in black 384-well polystyrene plates in a final reaction volume of 20 μL. JAK2 JH1 (1.5 nM) was incubated with compounds (100 nL serially diluted in DMSO) in the presence of 50 nM fluorescent JAK2-JH1 tracer and 0.5 nM Streptavidin-Tb cryptate (Cisbio Part #610SATLB) in assay buffer (50 mM Tris, pH=7.5, 10 mM MgCl2, 0.01% Brij-35, 0.1% BSA, 1 mM EGTA, 5% Glycerol and 5 mM DTT). Non-specific binding was accessed in the presence of 2 mM ATP. After incubation for 2 hours at 25° C., LanthaScreen signals were read on a PHERAstar FS plate reader (BMG LABTECH). Data was analyzed with IDBS XLfit and GraphPad Prism 5.0 software using a four parameter dose response curve to determine IC50 for each compound.

[2] = target: T2, pseudo-kinase domain (JH2, amino-acids 536-812 with 3 surface mutations W659A, W777A, F794H) of human V617F mutant JAK2 (Homo sapiens, UniProt O60674, F794H/V617F/W659A/W777A); test: JAK2 LanthaScreen JH2-V617F Binding Assay; settings: JAK2 JH2-V617F (0.26 nM), 50 nM Fluorescent JAK2-JH2 Tracer, 1 hour at 25° C.; read-out: JH2 BIND V617F
T2 construct: pseudo-kinase domain (JH2, amino-acids 536-812 with 3 surface mutations W659A, W777A, F794H); His (C); Avi (biotinylated) (C); purchased BPS Bioscience 79498; host or cells: baculovirus expression system
Protocol: Example C. JAK2 LanthaScreen JH2-V617F Binding Assay
(§1) JAK2 JH2-V617F binding assay utilizes pseudo-kinase domain (JH2, amino-acids 536-812 with 3 surface mutations W659A, W777A, F794H) of human V617F mutant JAK2 expressed as C-terminal His-Avi-tagged, biotinylated protein in a baculovirus expression system (BPS Bioscience, Catalog #79498). The assay was conducted in black 384-well polystyrene plates in a final reaction volume of 20 μL. JAK2 JH2-V617F (0.26 nM) was incubated with compounds (100 nL serially diluted in DMSO) in the presence of 50 nM Fluorescent JAK2-JH2 Tracer (MedChem Express Catalog #HY-102055) and 0.25 nM Streptavidin-Tb cryptate (Cisbio Part #610SATLB) in assay buffer (50 mM Tris, pH=7.5, 10 mM MgCl2, 0.01% Brij-35, 0.1% BSA, 1 mM EGTA, 5% Glycerol and 5 mM DTT). Non-specific binding was accessed in the presence of 2 mM ATP. After incubation for 1 hour at 25° C., LanthaScreen signals were read on a PHERAstar FS plate reader (BMG LABTECH). Data was analyzed with IDBS XLfit and GraphPad Prism 5.0 software using a four parameter dose response curve to determine IC50 for each compound.

[3] = target: T3, pseudo-kinase domain (JH2, amino-acids 536-812 with 3 surface mutations W659A, W777A, F794H) of human Wild Type JAK2 (Homo sapiens, UniProt O60674, F794H/W659A/W777A); test: JAK2 LanthaScreen JH2-WT Binding Assay; settings: JAK2 JH2-WT (0.145 nM), 50 nM Fluorescent JAK2-JH2 Tracer, 1 hour at 25° C.; read-out: JH2 BIND WT
T3 construct: pseudo-kinase domain (JH2, amino-acids 536-812 with 3 surface mutations W659A, W777A, F794H); His (C); Avi (biotinylated) (C); purchased BPS Bioscience 79463; host or cells: baculovirus expression system
Protocol: Example B. JAK2 LanthaScreen JH2-WT Binding Assay
as §1, with “JH2-WT” for “JH2-V617F”, “Wild Type” for “V617F mutant”, “#79463).” for “#79498).”, “JH2-WT (0.145” for “JH2-V617F (0.26”

T3 sequence (O60674 536-812 W659A/W777A/F794H): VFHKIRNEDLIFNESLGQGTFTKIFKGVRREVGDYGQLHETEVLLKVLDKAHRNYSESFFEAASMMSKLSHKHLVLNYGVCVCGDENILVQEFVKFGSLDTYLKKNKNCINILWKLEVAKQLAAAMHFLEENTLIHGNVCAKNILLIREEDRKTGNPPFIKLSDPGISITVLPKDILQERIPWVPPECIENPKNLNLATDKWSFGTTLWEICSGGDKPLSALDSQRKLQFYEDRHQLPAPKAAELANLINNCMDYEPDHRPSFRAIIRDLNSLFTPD
T2 sequence (O60674 536-812 V617F/W659A/W777A/F794H): as the sequence (O60674 536-812 W659A/W777A/F794H) above, with V82F counted along it
T1 sequence (O60674 826-1132): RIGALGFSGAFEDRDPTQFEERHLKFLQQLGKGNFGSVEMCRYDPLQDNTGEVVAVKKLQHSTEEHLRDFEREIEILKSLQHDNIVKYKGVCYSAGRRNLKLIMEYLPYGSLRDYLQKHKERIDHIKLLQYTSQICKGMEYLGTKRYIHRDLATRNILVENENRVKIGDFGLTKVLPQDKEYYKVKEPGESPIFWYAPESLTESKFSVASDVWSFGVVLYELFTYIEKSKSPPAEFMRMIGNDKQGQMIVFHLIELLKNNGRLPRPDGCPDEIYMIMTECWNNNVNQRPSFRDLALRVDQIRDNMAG

| Structure (SMILES) | pIC50 [1] | pIC50 [2] | pIC50 [3] |
| --- | --- | --- | --- |
| Cn1c(=O)n(C(C)(C)C)c2c3cc(-c4ccc(CN5CCC(S(C)(=O)=O)CC5)cc4)[nH]c3ncc21 [Example 11, 1-(tert-Butyl)-3-methyl-7-(4-((4-(methylsulfonyl)piperidin-1-yl)methyl)phenyl)-3,6-dihydroimidazo[4,5-d]pyrrolo[2,3-b]pyridin-2(1H)-one] | 7.00 to 8.00 | 7.00 to 8.00 | 7.00 to 8.00 |
| Cn1c(=O)n(C2CCCCC2)c2c3cc(-c4cnn(CS(C)(=O)=O)c4)[nH]c3ncc21 [Example 12, 1-Cyclohexyl-3-methyl-7-(1-((methylsulfonyl)methyl)-1H-pyrazol-4-yl)-3,6-dihydroimidazo[4,5-d]pyrrolo[2,3-b]pyridin-2(1H)-one] | 7.00 to 8.00 | 6.30 to 7.00 | 7.00 to 8.00 |
| CCn1c(=O)n(C2CCCC2)c2c3cc(-c4ccc(CN5CCC(S(C)(=O)=O)CC5)cc4)[nH]c3ncc21 [Example 13, 1-Cyclopentyl-3-ethyl-7-(4-((4-(methylsulfonyl)piperidin-1-yl)methyl)phenyl)-3,6-dihydroimidazo[4,5-d]pyrrolo[2,3-b] pyridin-2(1H)-one] | 6.30 to 7.00 | < 6.00 | < 6.00 |
| Cn1cc(-c2cc3c(ncc4c3[nH]c(=O)n4C)[nH]2)cn1 [Example 14, 3-Methyl-7-(1-methyl-1H-pyrazol-4-yl)-3,6-dihydroimidazo[4,5-d]pyrrolo[2,3-b]pyridin-2(1H)-one] | 6.30 to 7.00 | < 6.00 | < 6.00 |
| Cn1c(=O)n(C2CCCOC2)c2c3cc(-c4ccc(CN5CCC(S(C)(=O)=O)CC5)cc4)[nH]c3ncc21 (stereo not drawn) [Example 15, 3-Methyl-7-(4-((4-(methylsulfonyl)piperidin-1-yl)methyl)phenyl)-1-(tetrahydro-2H-pyran-3-yl)-3,6-dihydroimidazo[4,5-d]pyrrolo[2,3-b]pyridin-2(1H)-one] | 7.00 to 8.00 | 6.30 to 7.00 | 6.30 to 7.00 |
| CCN1CCN(c2ccc(-c3cc4c(ncc5c4n(Cc4cnn(C)c4)c(=O)n5C)[nH]3)cc2)CC1 [Example 16, 7-(4-(4-Ethylpiperazin-1-yl)phenyl)-3-methyl-1-((1-methyl-1H-pyrazol-4-yl)methyl)-3,6-dihydroimidazo[4,5-d]pyrrolo[2,3-b]pyridin-2(1H)-one] | 6.00 to 6.30 | < 6.00 | < 6.00 |
| CCN1CCN(c2ccc(-c3cc4c(ncc5c4n(CC(=O)N4CCCCC4)c(=O)n5C)[nH]3)cc2)CC1 [Example 17, 7-(4-(4-Ethylpiperazin-1-yl)phenyl)-3-methyl-1-(2-oxo-2-(piperidin-1-yl)ethyl)-3,6-dihydroimidazo[4,5-d]pyrrolo[2,3-b]pyridin-2(1H)-one] | < 6.00 | < 6.00 | < 6.00 |
| CC(C)n1c(=O)n(C)c2cnc3[nH]c(-c4ccc(CN5CCC(S(C)(=O)=O)CC5)cc4)c(-c4ccccc4)c3c21 [Example 18, 1-Isopropyl-3-methyl-7-(4-((4-(methylsulfonyl)piperidin-1-yl)methyl)phenyl)-8-phenyl-3,6-dihydroimidazo[4,5-d]pyrrolo[2,3-b]pyridin-2(1H)-one] | 6.30 to 7.00 | ≥ 8.00 | ≥ 8.00 |
| COc1ccc(-c2c(-c3ccc(CN4CCC(S(C)(=O)=O)CC4)cc3)[nH]c3ncc4c(c23)n(C2CCCCC2)c(=O)n4C)cc1 [Example 19, 1-Cyclohexyl-8-(4-methoxyphenyl)-3-methyl-7-(4-((4-(methylsulfonyl)piperidin-1-yl)methyl)phenyl)-3,6-dihydroimidazo [4,5-d]pyrrolo[2,3-b]pyridin-2(1H)-one] | 7.00 to 8.00 | ≥ 8.00 | ≥ 8.00 |
| COc1ccc(-c2c(-c3ccc(CN4CCC(S(C)(=O)=O)CC4)cc3)[nH]c3ncc4c(c23)n(CC(C)C)c(=O)n4C)cc1 [Example 20, 1-Isobutyl-8-(4-methoxyphenyl)-3-methyl-7-(4-((4-(methylsulfonyl)piperidin-1-yl)methyl)phenyl)-3,6-dihydroimidazo [4,5-d]pyrrolo[2,3-b]pyridin-2(1H)-one] | 6.30 to 7.00 | ≥ 8.00 | ≥ 8.00 |
| COc1ccc(-c2c(-c3ccc(CN4CCC(S(C)(=O)=O)CC4)cc3)[nH]c3ncc4c(c23)n(C2CCC2)c(=O)n4C)cc1 [Example 21, 1-Cyclobutyl-8-(4-methoxyphenyl)-3-methyl-7-(4-((4-(methylsulfonyl)piperidin-1-yl)methyl)phenyl)-3,6-dihydroimidazo [4,5-d]pyrrolo [2,3-b]pyridin-2(1H)-one] | 6.30 to 7.00 | ≥ 8.00 | ≥ 8.00 |
| COc1ccc(-c2c(-c3ccc(CN4CCC(S(C)(=O)=O)CC4)cc3)[nH]c3ncc4c(c23)n(-c2ccccc2)c(=O)n4C)cc1 [Example 22, 8-(4-Methoxyphenyl)-3-methyl-7-(4-((4-(methylsulfonyl)piperidin-1-yl)methyl)phenyl)-1-phenyl-3,6-dihydroimidazo[4,5-d]pyrrolo[2,3-b]pyridin-2(1H)-one] | 6.30 to 7.00 | 7.00 to 8.00 | 7.00 to 8.00 |
| COc1ccc(-c2c(-c3ccc(CN4CCC(S(C)(=O)=O)CC4)cc3)[nH]c3ncc4c([nH]c(=O)n4C)c23)cc1 [Example 23, 8-(4-Methoxyphenyl)-3-methyl-7-(4-((4-(methylsulfonyl)piperidin-1-yl)methyl)phenyl)-3,6-dihydroimidazo[4,5-d]pyrrolo[2,3-b]pyridin-2(1H)-one] | 6.30 to 7.00 | 6.30 to 7.00 | 7.00 to 8.00 |
| COC1CC=C(c2c(-c3ccc(CN4CCC(S(C)(=O)=O)CC4)cc3)[nH]c3ncc4c(c23)n(C(C)(C)C)c(=O)n4C)CC1 (stereo not drawn) [Example 24, 1-(tert-Butyl)-8-(4-methoxycyclohex-1-en-1-yl)-3-methyl-7-(4-((4-(methylsulfonyl)piperidin-1-yl)methyl)phenyl)-3,6-dihydroimidazo[4,5-d]pyrrolo[2,3-b] pyridin-2(1H)-one] | 6.00 to 6.30 | ≥ 8.00 | ≥ 8.00 |
| CC(C)n1c(=O)n(C)c2cnc3[nH]c(-c4ccc(CN5CCC(S(C)(=O)=O)CC5)cc4)c(-c4ccc(C#N)cc4)c3c21 [Example 25, 4-(1-Isopropyl-3-methyl-7-(4-((4-(methylsulfonyl)piperidin-1-yl)methyl)phenyl)-2-oxo-1,2,3,6-tetrahydroimidazo [4,5-d]pyrrolo[2,3-b]pyridin-8-yl)benzonitrile] | 6.00 to 6.30 | ≥ 8.00 | ≥ 8.00 |
